How the values were obtained:
[1] = test system: NLRP3 inflammasome (IL-1β production in THP-1 cells); test: IL-1β TR-FRET Assay (percentage of inhibition at 300 nM, 6 μM or 10 μM); type: cell-based, human; conditions: Homo sapiens, LPS priming, ATP activation; for inhibition at 0.3 µM: THP-1, 300 nM, read-out: IL-1β inhibitory rate at 300 nM (%); for inhibition at 6 µM: THP-1, 6 μM, read-out: IL-1β inhibitory rate at 6 μM (%)
Method in brief: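 Percent inhibition of IL-1β used DMSO wells as 0% and 3 μM MCC-950 wells as full inhibition, with supernatant read by HTRF. Beforehand, IFN-γ-differentiated (25 ng/mL, 24 h), LPS-primed (50 ng/mL, 24 h) THP-1 cells received compound 30 min before inflammasome activation by 20 mM ATP for 2 h.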

[2] = test system: TNF-α (NF-κB pathway, THP-1 cells); test: TNF-α Assay (IC50); type: cell-based, human; conditions: Homo sapiens, 600 ng/mL LPS, 3 hours
Method: TNF-α Assay (Reported as IC50)
Monocytic THP-1 cells (ATCC: TIB-202) were maintained in accordance with the provider's instructions in RPMI media (Life Technologies, Cat #A10491-01); RPMI was supplemented with 10% heat inactivated fetal bovine serum (Hyclone Cat #SH30396.03). The cells were differentiated into macrophages by the addition of 25 ng/mL IFN-7 for 24 hours at 37° C./5% CO2. Media was exchanged with fresh media with no FBS. The cells were plated at 40,000 cells per well in 384-well flat-bottom cell culture plates (Costar 3764) containing compounds (added in 1:1000) in a 1:3.16 serial dilution series in DMSO and were incubated for 30 minutes at 37° C./5% CO2. The NF-κB pathway was activated with the addition of 600 ng/mL LPS and the cells were incubated for 3 hours at 37° C./5% CO2. At the end of the incubation period, supernatant ([…]) was removed, and TNF-alpha were monitored using an ELISA (Human TNF-α ELISA, R&D systems, Cat #DY210) according to the manufacturer's instructions. 100% inhibition is determined with positive control, TPCA-1.
The IC50 values in the TNF-α assay were calculated from a plot of percentage of inhibition versus the inhibitor concentration by a logistics curve fit according to: Y=[Bottom+(Top−Bottom)]/(1+10^[(Log IC50−X)·Hill Slope], where Y was the […] at the inhibitor concentration, X, “Bottom” was the lowest inhibition value, i.e., 0%, “Top” was the maximum inhibition value, i.e., 100%, and the “Hill Slope” described the slope of the sigmoidal curve between the “Bottom” and “Top” values. The curve fitting was conducted with internally developed software.

SMILES | inhibition at 0.3 µM [1] [%] | IC50 [2] [µM] | inhibition at 6 µM [1] [%] | inhibition at 10 µM ([1]; THP-1, 10 μM, read-out: IL-1β inhibitory rate at 10 μM (%)) [%]
CCOc1nc2nn(-c3c(F)cc(Br)cc3Br)cc2c(=O)[nH]1 [Example 128, 2-(2,4-dibromo-6-fluorophenyl)-6-ethoxy-2,5-dihydro-4H-pyrazolo[3,4-d]pyrimidin-4-one] | 97 | > 30 | – | –
Cc1cc(C)c(-n2cc3c(=O)[nH]c(OCC(F)F)nc3n2)c(O)c1 [Example 32, 6-(2,2-difluoroethoxy)-2-(2-hydroxy-4,6-dimethylphenyl)-2,5-dihydro-4H-pyrazolo[3,4-d]pyrimidin-4-one] | 105 | > 30 | – | –
Cc1ccc(-n2cc3c(=O)[nH]c(OC4CCOCC4)nc3n2)c(C)c1 [Example 176, 2-(2,4-dimethylphenyl)-6-[(oxan-4-yl)oxy]-2,5-dihydro-4H-pyrazolo[3,4-d]pyrimidin-4-one] | 101 | > 30 | – | –
CO[C@@H]1C[C@H]1c1nc2nn(-c3c(C)cc(C4CC4)cc3C)cc2c(=O)[nH]1 (racemic) [Example 265, racemic mixture of 2-(4-cyclopropyl-2,6-dimethylphenyl)-6-[(1R,2S)-2-methoxycyclopropyl]-2,5-dihydro-4H-pyrazolo[3,4-d]pyrimidin-4-one and 2-(4-cyclopropyl-2,6-dimethylphenyl)-6-[(1S,2R)-2-methoxycyclopropyl]-2,5-dihydro-4H-pyrazolo[3,4-d]pyrimidin-4-one] | – | > 30 | 95 | –
CCOc1nc2nn(-c3c(C)cc(C)cc3C(F)F)cc2c(=O)[nH]1 [Example 159, 2-[2-(difluoromethyl)-4,6-dimethylphenyl]-6-ethoxy-2,5-dihydro-4H-pyrazolo[3,4-d]pyrimidin-4-one] | 103 | > 30 | – | –
O=c1[nH]c([C@H]2COCCO2)nc2nn(-c3c(F)cc(C4CC4)cc3C(F)F)cc12 (single isomer, unassigned) [Example 312, 2-[4-cyclopropyl-2-(difluoromethyl)-6-fluorophenyl]-6-[(2R)-1,4-dioxan-2-yl]-2,5-dihydro-4H-pyrazolo[3,4-d]pyrimidin-4-one or 2-[4-cyclopropyl-2-(difluoromethyl)-6-fluorophenyl]-6-[(2S)-1,4-dioxan-2-yl]-2,5-dihydro-4H-pyrazolo [3,4-d]pyrimidin-4-one] | – | > 30 | 104 | –
Cc1ccc(-n2cc3c(=O)[nH]c(OCC(C)OCc4ccccc4)nc3n2)c(C)c1 (racemic) [Example 99, 6-[2-(benzyloxy)propoxy]-2-(2,4-dimethylphenyl)-2,5-dihydro-4H-pyrazolo[3,4-d]pyrimidin-4-one] | 41 | > 30 | – | –
CCOc1nc2nn(-c3c(F)cc(C)cc3OC(F)F)cc2c(=O)[nH]1 [Example 108] | 98 | > 30 | – | –
CCOc1nc2nn(-c3c(C)cc(C)cc3O)c(C)c2c(=O)[nH]1 [Example 37, 6-ethoxy-2-(2-hydroxy-4,6-dimethylphenyl)-3-methyl-2,5-dihydro-4H-pyrazolo[3,4-d]pyrimidin-4-one] | 101 | > 30 | – | –
Cc1cc(C2CC2)cc(C)c1-n1cc2c(=O)[nH]c(-c3cn(C)nn3)nc2n1 [Example 229, 2-(4-cyclopropyl-2,6-dimethylphenyl)-6-(1-methyl-1H-1,2,3-triazol-4-yl)-2,5-dihydro-4H-pyrazolo[3,4-d]pyrimidin-4-one] | 99 | > 30 | – | –
COc1nc2nn(-c3c(C)cc(C4CC4)cc3OC(F)F)cc2c(=O)[nH]1 [Example 252, 2-[4-cyclopropyl-2-(difluoromethoxy)-6-methylphenyl]-6-methoxy-2,5-dihydro-4H-pyrazolo [3,4-d]pyrimidin-4-one] | – | > 30 | 103 | –
CCOc1nc2nn(-c3c(C)ccc(C)c3F)cc2c(=O)[nH]1 [Example 101, 6-ethoxy-2-(2-fluoro-3,6-dimethylphenyl)-2,5-dihydro-4H-pyrazolo[3,4-d]pyrimidin-4-one] | – | > 30 | – | 95

Source: US20260297092A1, “PYRAZOLOPYRIMIDINE DERIVATIVES AS INHIBITORS OF NLRP3” (Takeda Pharmaceutical Company Limited, priority 2023, published 2026)
